The record followed here is PubChem BioAssay AID2305 (GlaxoSmithKline (GSK), 2010).

This test concerns P. falciparum 3D7 growth, pLDH absorbance. Description: blood-stage malaria parasite growth potency – strain 3D7, dose response (AID 2305).
As usually defined, the IC50 is the midpoint of a concentration-inhibition curve. In the case of `CCc1ccc(NC(=O)c2ccc(CN3CCCN(Cc4cccc(C)c4)CC3)cc2)cc1`, the half-maximal inhibitory concentration (IC50) was 1.13 µM.
With `COc1cc(-c2ccc3c(-c4ccc(C(=O)N5CCN(C)CC5)cc4)[nH]nc3n2)cc(OC)c1OC`, the IC50 worked out at 1.33 µM.
`Cc1cc(NCCC(=O)NCCOc2ccccc2)nc(NCCc2ccc(F)cc2)n1` yielded an IC50 of 0.94 µM.
Take `N[C@@H](Cc1ccc(O)cc1)C(=O)NC(c1ccccc1)c1c(O)ccc2ccccc12` (stereo partly specified): the IC50 is 0.69 µM.
`O=C(Nc1cccc(-c2nc3ccccc3[nH]2)c1)c1ccc(-c2cccc([N+](=O)[O-])c2)o1` registered an IC50 of 0.15 µM.
`c1ccn2c(-c3ncnc(NCc4ccc5c(c4)CCO5)n3)cnc2c1` gave a 50% inhibitory concentration (IC50) of 1.19 µM.
As for `COc1ccc2nc(-c3ccccc3)cc(NN=Cc3ccncc3)c2c1`, the IC50 turned out to be 0.81 µM.
Turning to `CCOc1ccc2c(NN=Cc3c4ccccc4cc4ccccc34)cc(C)nc2c1`, the IC50 is 1.07 µM.
On to `CC(Cc1ccc(OCCCCOc2ccccc2)cc1)NCCCc1nc2ccccc2[nH]1` (stereo unspecified), for which the concentration for half-maximal inhibition (IC50) is 0.98 µM.
For the compound `O=C(COc1ccc(Cl)c(Cl)c1)NCCCCCN1CCCN(C(=O)Nc2ccc(Cl)c(Cl)c2)CC1`, the half-maximal inhibitory concentration (IC50) amounted to 1.73 µM.
Compound `CN1CCc2cc(NS(=O)(=O)c3ccc(-c4ccc(Cl)cc4)cc3)c(OCCCN3CCCCC3)cc2CC1` registered an IC50 of 0.96 µM.
In the case of `Cc1ccc2nc(C)cc(NN=Cc3ccccc3Cl)c2c1`, the IC50 amounted to 0.75 µM.
Compound `CCOC(=O)CNCC(=O)c1ccc(OCc2ccccc2)cc1` yielded a concentration for half-maximal inhibition (IC50) of 0.16 µM.
For `CC(=O)C1=NN(c2ccc(C)cc2)C(c2cccs2)N1c1ccccc1` (stereo unspecified), the IC50 stood at 0.34 µM.
For `Cc1ccc(CNC(=O)[C@H](CCCN)Nc2nc(Nc3ccccc3)ncc2C)cc1`, the IC50 was found to be 1.53 µM.
`COc1ccc(-c2nc(NC(=O)Cc3ccc(OC)c(OC)c3)sc2C)cc1` gave a half-inhibitory concentration (IC50) of 1.16 µM.
For the compound `CCCCCCC1(C)N=C(N)N=C(N)C1c1ccc(Cl)c(Cl)c1` (stereo unspecified), the half-inhibitory concentration (IC50) came out at 0.13 µM.
For `COc1cccc(CNC(=O)[C@@H]2CN(C(=O)c3ccccc3)CCN2)c1` the value was 1.16 µM; for `O=C(NCc1ccc(C(=O)N2CCC(N3CCCCC3)CC2)cc1)c1cc(-c2cccc(C(F)(F)F)c2)ccc1O`, 0.82 µM; for `N#Cc1cccc(-c2cccc(C(=O)NC3CCC(CCN4CCc5ccc(C#N)cc5CC4)CC3)c2)c1` (stereo unspecified), 0.26 µM.
`O=c1cc(-c2cccc(C(F)(F)F)c2)nc(Nc2ccc(Cl)c(Cl)c2)[nH]1` had a concentration for half-maximal inhibition (IC50) of 0.76 µM.
`COc1ccc2nc(N)nc(C)c2c1` returned an IC50 of 0.93 µM.
For `COc1ccc(NC(=O)NC2CCN(CCCOc3ccnc4cc(Cl)ccc34)C2)cc1OC` (stereo unspecified), the IC50 was 0.79 µM.
For `Cn1cc(CN2CCC(CCOC(c3ccccc3)c3ccccc3)CC2)cn1`, the half-maximal inhibitory concentration (IC50) worked out at 0.26 µM.
Take `c1ccc(-c2ccc(CNCc3ccc(-c4cccc(-c5nc6ccccc6[nH]5)c4)cc3)s2)nc1`: the IC50 turned out to be 0.4 µM.
The compound `CCCCN1CCN(c2cc(NS(=O)(=O)c3cccc(C(=O)Nc4ccc(C(F)(F)F)cc4)c3)ccc2OC)CC1` showed an IC50 of 0.69 µM.
Compound `CCCN1CCN(CCCNc2c3ccccc3nc3ccccc23)CC1` gave an IC50 of 0.55 µM.
In turn, `O=C(/C=C/c1ccc(Cl)c(Cl)c1)NCC1CCC(CN2CCC(c3c[nH]c4ccccc34)CC2)CC1` (stereo unspecified) yielded an IC50 of 0.36 µM.
Turning to `O=C(NC1CC1)c1ccc(N2CCOc3ccc(Cl)cc32)s1`, the concentration for half-maximal inhibition (IC50) was 0.8 µM.
For `Cc1ccn2cc(-c3ccc(NC(=O)c4ccc(Br)o4)cc3)nc2c1` the value was 0.74 µM; for `C=CCn1c(Cc2ccccc2)nnc1Sc1ccc(C#N)c([N+](=O)[O-])c1`, 1.03 µM; for `CC1(C)N=C(N)N=C(N)N1c1ccc(Oc2ccc(Cl)cc2)c(Cl)c1`, 0.08 µM.
The value for `O=C(NC1CC1)c1ccc(N2CCCC(COc3ccccc3F)C2)nc1` (stereo unspecified) was 0.9 µM; that for `c1ccc2oc(-c3cc4ccncc4cc3OC3CCNCC3)cc2c1` was 1.47 µM.
`COc1ccccc1-n1ccnc1SCC(=O)Nc1cccc(C(F)(F)F)c1` yielded an IC50 of 0.16 µM.
Regarding `CCNc1cc(C)nc(Nc2ccc(NC(=O)Cc3ccc(OC)cc3)cc2)n1`, the concentration for half-maximal inhibition (IC50) worked out at 1.38 µM.
